Results published in US9453026B2, “ACC inhibitors and uses thereof” (Gilead Apollo, Inc., priority 2011, dated 2016).

Target: ACC2 (Homo sapiens, UniProt O00763)
Assay: In vitro ACC2 inhibition assay (ADP-Glo)
Assay type: biochemical
Settings: read-out: ACC2
Procedure, shortened: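 Enzyme (human ACC1 or ACC2) and compound, serially diluted 1:3 over 11 points from a 600 uM DMSO stock, were preincubated 15 min before substrate addition.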

Chain of ACC2 (O00763 whole entry, species assumed): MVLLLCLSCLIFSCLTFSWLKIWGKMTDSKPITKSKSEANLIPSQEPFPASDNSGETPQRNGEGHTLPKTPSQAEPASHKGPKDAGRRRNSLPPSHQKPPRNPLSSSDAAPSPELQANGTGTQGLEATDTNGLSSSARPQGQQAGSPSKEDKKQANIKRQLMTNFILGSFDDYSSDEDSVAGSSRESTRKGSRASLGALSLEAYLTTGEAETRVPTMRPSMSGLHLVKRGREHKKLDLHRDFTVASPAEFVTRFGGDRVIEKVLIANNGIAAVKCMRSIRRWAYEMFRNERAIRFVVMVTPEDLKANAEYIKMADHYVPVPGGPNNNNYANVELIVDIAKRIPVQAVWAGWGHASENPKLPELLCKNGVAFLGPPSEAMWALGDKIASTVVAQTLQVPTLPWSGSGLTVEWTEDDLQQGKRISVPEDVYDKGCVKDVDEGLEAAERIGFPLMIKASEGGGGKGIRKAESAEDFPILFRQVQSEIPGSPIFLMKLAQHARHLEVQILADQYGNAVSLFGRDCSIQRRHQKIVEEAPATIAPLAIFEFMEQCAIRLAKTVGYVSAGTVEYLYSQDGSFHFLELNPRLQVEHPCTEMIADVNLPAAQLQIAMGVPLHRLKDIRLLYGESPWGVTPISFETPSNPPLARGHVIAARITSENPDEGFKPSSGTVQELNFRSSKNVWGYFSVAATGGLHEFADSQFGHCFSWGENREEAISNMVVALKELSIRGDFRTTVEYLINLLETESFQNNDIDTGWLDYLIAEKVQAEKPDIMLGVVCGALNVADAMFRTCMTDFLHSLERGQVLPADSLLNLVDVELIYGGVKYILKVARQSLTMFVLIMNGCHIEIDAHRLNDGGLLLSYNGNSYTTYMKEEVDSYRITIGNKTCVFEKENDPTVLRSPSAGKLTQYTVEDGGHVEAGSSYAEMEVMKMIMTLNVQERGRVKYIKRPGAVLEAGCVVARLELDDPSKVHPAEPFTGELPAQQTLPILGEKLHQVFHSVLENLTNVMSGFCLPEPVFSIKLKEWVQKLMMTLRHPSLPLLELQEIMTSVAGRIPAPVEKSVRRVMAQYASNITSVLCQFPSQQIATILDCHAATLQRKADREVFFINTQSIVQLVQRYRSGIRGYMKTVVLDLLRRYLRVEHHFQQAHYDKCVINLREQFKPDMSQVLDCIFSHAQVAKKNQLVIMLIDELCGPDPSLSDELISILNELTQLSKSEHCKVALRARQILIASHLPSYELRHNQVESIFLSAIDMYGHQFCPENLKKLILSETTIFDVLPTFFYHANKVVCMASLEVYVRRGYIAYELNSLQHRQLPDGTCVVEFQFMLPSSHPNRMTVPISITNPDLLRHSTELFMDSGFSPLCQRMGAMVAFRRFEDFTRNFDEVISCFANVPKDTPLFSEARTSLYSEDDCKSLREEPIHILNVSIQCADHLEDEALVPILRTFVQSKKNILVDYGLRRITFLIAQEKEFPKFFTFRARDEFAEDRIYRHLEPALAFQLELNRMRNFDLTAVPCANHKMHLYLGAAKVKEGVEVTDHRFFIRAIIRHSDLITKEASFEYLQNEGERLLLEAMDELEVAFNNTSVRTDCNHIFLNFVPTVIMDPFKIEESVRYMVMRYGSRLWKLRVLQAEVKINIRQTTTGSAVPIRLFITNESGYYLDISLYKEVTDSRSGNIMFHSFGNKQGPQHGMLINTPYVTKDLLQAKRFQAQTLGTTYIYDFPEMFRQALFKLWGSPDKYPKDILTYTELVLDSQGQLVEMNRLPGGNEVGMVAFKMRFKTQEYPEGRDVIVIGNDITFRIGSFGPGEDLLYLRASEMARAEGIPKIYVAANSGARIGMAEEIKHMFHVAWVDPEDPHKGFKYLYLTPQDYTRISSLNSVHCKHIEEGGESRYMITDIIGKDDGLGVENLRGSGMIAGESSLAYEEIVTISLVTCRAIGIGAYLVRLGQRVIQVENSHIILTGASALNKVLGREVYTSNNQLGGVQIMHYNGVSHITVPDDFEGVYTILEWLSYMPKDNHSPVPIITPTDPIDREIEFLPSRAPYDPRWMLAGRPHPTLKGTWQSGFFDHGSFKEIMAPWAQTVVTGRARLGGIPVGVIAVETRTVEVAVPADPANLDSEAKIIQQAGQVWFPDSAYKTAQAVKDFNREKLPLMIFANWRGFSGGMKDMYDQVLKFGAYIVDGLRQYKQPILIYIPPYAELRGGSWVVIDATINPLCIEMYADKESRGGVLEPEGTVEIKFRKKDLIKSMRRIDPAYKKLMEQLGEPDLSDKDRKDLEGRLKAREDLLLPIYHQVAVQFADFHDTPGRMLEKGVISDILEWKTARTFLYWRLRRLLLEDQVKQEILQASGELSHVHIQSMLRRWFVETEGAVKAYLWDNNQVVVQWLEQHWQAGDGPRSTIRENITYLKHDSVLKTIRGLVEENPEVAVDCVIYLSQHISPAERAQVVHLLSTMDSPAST

Structure (SMILES) | IC50
Cc1c(-c2ncco2)sc2c1c(=O)n(C(C)(C)C(=O)O)c(=O)n2C[C@H](O[C@H]1CCC[C@@H](O)C1)c1ccccc1 [I-173, 2-(1-((R)-2-(((1S,3R)-3-hydroxycyclohexyl)oxy)-2-phenylethyl)-5-methyl-6-(oxazol-2-yl)-2,4-dioxo-1,2-dihydrothieno[2,3-d]pyrimidin-3(4H)-yl)-2-methylpropanoic acid] | < 1 µM
Cc1c(-c2ncco2)sc2c1c(=O)n(C(C)(C)C(=O)O)c(=O)n2C[C@H](OCC(C)(C)O)c1ccccc1 [I-175, 2-[1-[(2R)-2-(2-hydroxy-2-methylpropoxy)-2-phenylethyl]-5-methyl-6-(1,3-oxazol-2-yl)-2,4-dioxo-1H,2H,3H,4H-thieno[2,3-d]pyrimidin-3-yl]-2-methylpropanoic acid] | < 1 µM
Cc1c(-c2ncco2)sc2c1c(=O)n(C(C)(C)C(=O)O)c(=O)n2CCC1CCCCC1 [I-176, 2-[1-(2-cyclohexylethyl)-5-methyl-6-(1,3-oxazol-2-yl)-2,4-dioxo-1H,2H,3H,4H-thieno[2,3-d]pyrimidin-3-yl]-2-methylpropanoic acid] | < 5 µM
Cc1c(-c2ncco2)sc2c1c(=O)n(C(C)(C)C(=O)O)c(=O)n2C[C@H](OC[C@H](C)O)c1ccccc1 [I-178, 2-[1-[(2R)-2-[(2S)-2-hydroxypropoxy]-2-phenylethyl]-5-methyl-6-(1,3-oxazol-2-yl)-2,4-dioxo-1H,2H,3H,4H-thieno[2,3-d]pyrimidin-3-yl]-2-methylpropanoic acid] | < 5 µM
Cc1c(-c2ncco2)sc2c1c(=O)n(C(C)(C)C(=O)O)c(=O)n2C[C@H](OC1COC1)c1ccccc1 [I-182, 2-methyl-2-[5-methyl-6-(1,3-oxazol-2-yl)-1-[(2R)-2-(oxetan-3-yloxy)-2-phenylethyl]-2,4-dioxo-1H,2H,3H,4H-thieno[2,3-d]pyrimidin-3-yl]propanoic acid] | 20 to 50 µM
CCOc1ccccc1[C@H](Cn1c(=O)n(C(C)(C)C(=O)O)c(=O)c2c(C)c(-c3ncco3)sc21)OC1CCOCC1 [I-183, 2-[1-[(2R)-2-(2-ethoxyphenyl)-2-(oxan-4-yloxy)ethyl]-5-methyl-6-(1,3-oxazol-2-yl)-2,4-dioxo-1H,2H,3H,4H-thieno[2,3-d]pyrimidin-3-yl]-2-methylpropanoic acid] | < 0.1 µM
Cc1c(-c2ncco2)sc2c1c(=O)n(C(C)(C)C(=O)O)c(=O)n2C[C@H](O[C@H](C)CO)c1ccccc1 [I-184, 2-[1-[(2R)-2-[[(2R)-1-hydroxypropan-2-yl]oxy]-2-phenylethyl]-5-methyl-6-(1,3-oxazol-2-yl)-2,4-dioxo-1H,2H,3H,4H-thieno[2,3-d]pyrimidin-3-yl]-2-methylpropanoic acid] | < 1 µM
Cc1c(-c2ncco2)sc2c1c(=O)n(C(C)(C)C(=O)O)c(=O)n2C[C@H](O[C@@H](C)CO)c1ccccc1 [I-185, 2-[1-[(2R)-2-[[(2S)-1-hydroxypropan-2-yl]oxy]-2-phenylethyl]-5-methyl-6-(1,3-oxazol-2-yl)-2,4-dioxo-1H,2H,3H,4H-thieno[2,3-d]pyrimidin-3-yl]-2-methylpropanoic acid] | < 1 µM
Cc1c(-c2ncco2)sc2c1c(=O)n(C(C)(C)C(=O)O)c(=O)n2C[C@H](O[C@@H]1CCOC1)c1ccccc1 [I-186, 2-methyl-2-[5-methyl-6-(1,3-oxazol-2-yl)-2,4-dioxo-1-[(2R)-2-[(3R)-oxolan-3-yloxy]-2-phenylethyl]-1H,2H,3H,4H-thieno[2,3-d]pyrimidin-3-yl]propanoic acid] | < 1 µM
Cc1c(-c2ncco2)sc2c1c(=O)n(C(C)(C)C(=O)O)c(=O)n2C[C@H](OC(=O)N1CC(O)C1)c1ccccc1 [I-230, 2-[1-[(2R)-2-[(3-hydroxyazetidin-1-yl)carbonyloxy]-2-phenylethyl]-5-methyl-6-(1,3-oxazol-2-yl)-2,4-dioxo-1H,2H,3H,4H-thieno[2,3-d]pyrimidin-3-yl]-2-methylpropanoic acid] | < 5 µM
Cc1c(-c2ncco2)sc2c1c(=O)n(C(C)(C)C(=O)O)c(=O)n2C[C@H](OC(=O)N1CCOCC1)c1ccccc1 [I-231, 2-methyl-2-[5-methyl-1-[(2R)-2-[(morpholin-4-yl)carbonyloxy]-2-phenylethyl]-6-(1,3-oxazol-2-yl)-2,4-dioxo-1H,2H,3H,4H-thieno[2,3-d]pyrimidin-3-yl]propanoic acid] | < 5 µM
Cc1c(-c2ncco2)sc2c1c(=O)n(C(C)(C)C(=O)O)c(=O)n2CCOC1CCOCC1 [I-233, 2-methyl-2-[5-methyl-1-[2-(oxan-4-yloxy)ethyl]-6-(1,3-oxazol-2-yl)-2,4-dioxo-1H,2H,3H,4H-thieno[2,3-d]pyrimidin-3-yl]propanoic acid] | < 5 µM
Cc1c(-c2ncco2)sc2c1c(=O)n(C(C)(C)C(=O)O)c(=O)n2CCOC(C)C [I-234, 2-methyl-2-[5-methyl-6-(1,3-oxazol-2-yl)-2,4-dioxo-1-[2-(propan-2-yloxy)ethyl]-1H,2H,3H,4H-thieno[2,3-d]pyrimidin-3-yl]propanoic acid] | < 5 µM
COc1ccccc1[C@H](Cn1c(=O)n(C(C)(C)C(=O)NS(C)(=O)=O)c(=O)c2c(C)c(-c3ncco3)sc21)OC(C)C [I-240, N-methanesulfonyl-2-[1-[(2R)-2-(2-methoxyphenyl)-2-(propan-2-yloxy)ethyl]-5-methyl-6-(1,3-oxazol-2-yl)-2,4-dioxo-1H,2H,3H,4H-thieno[2,3-d]pyrimidin-3-yl]-2-methylpropanamide] | < 0.1 µM
Cc1c(-c2ncco2)sc2c1c(=O)n(C(C)(C)C(=O)O)c(=O)n2C[C@@H](OC1CCOCC1)c1ccccc1Cl [I-251, 2-[1-[(2S)-2-(2-chlorophenyl)-2-(oxan-4-yloxy)ethyl]-5-methyl-6-(1,3-oxazol-2-yl)-2,4-dioxo-1H,2H,3H,4H-thieno[2,3-d]pyrimidin-3-yl]-2-methylpropanoic acid] | < 5 µM
COc1ccccc1[C@H](Cn1c(=O)n(C(C)(C)C(=O)NCCO)c(=O)c2c(C)c(-c3ncco3)sc21)OC(C)C [I-257, N-(2-hydroxyethyl)-2-[1-[(2R)-2-(2-methoxyphenyl)-2-(propan-2-yloxy)ethyl]-5-methyl-6-(1,3-oxazol-2-yl)-2,4-dioxo-1H,2H,3H,4H-thieno[2,3-d]pyrimidin-3-yl]-2-methylpropanamide] | < 5 µM
COc1ccccc1[C@H](Cn1c(=O)n(C(C)(C)C(=O)O)c(=O)c2c(C)c(-c3ncco3)sc21)OC1COC1 [I-261, (R)-2-(1-(2-(2-methoxyphenyl)-2-(oxetan-3-yloxy)ethyl)-5-methyl-6-(oxazol-2-yl)-2,4-dioxo-1,2-dihydrothieno[2,3-d]pyrimidin-3(4H)-yl)-2-methylpropanoic acid] | < 5 µM
COc1ccccc1[C@@H](Cn1c(=O)n(C(C)(C)C(=O)O)c(=O)c2c(C)c(-c3ncco3)sc21)OC1COC1 [I-262, (S)-2-(1-(2-(2-methoxyphenyl)-2-(oxetan-3-yloxy)ethyl)-5-methyl-6-(oxazol-2-yl)-2,4-dioxo-1,2-dihydrothieno[2,3-d]pyrimidin-3(4H)-yl)-2-methylpropanoic acid] | < 5 µM
CCc1ccccc1[C@@H](Cn1c(=O)n(C(C)(C)C(=O)O)c(=O)c2c(C)c(-c3ncco3)sc21)OCCO [I-263, 2-[1-[(2S)-2-(2-ethylphenyl)-2-(2-hydroxyethoxy)ethyl]-5-methyl-6-(1,3-oxazol-2-yl)-2,4-dioxo-1H,2H,3H,4H-thieno[2,3-d]pyrimidin-3-yl]-2-methylpropanoic acid] | < 1 µM
